BindingDB's records for doi:10.1021/jm00076a014 (Zeneca Pharmaceuticals, 1994)

Biological target: prolyl 4-hydroxylase (collagen, EC 1.14.11.2)
Assay: Inhibition of prolyl 4-hydroxylase by chromatographic determination of [14C]-succinic acid on ion-exchange minicolumna

IC50 [nM] | Compound
5040 | O=C(NS(=O)(=O)c1ccccc1)c1ccc(-c2ccc(C(=O)NS(=O)(=O)c3ccccc3)cn2)nc1 [3-phenylsulfonamidocarbonyl-6-(5-phenylsulfonamidocarbonyl-2-pyridyl)pyridine]
320 | CCOc1ccc(NC(=O)c2ccc(-c3ccc(C(=O)O)cn3)nc2)cc1 [5'-(4-Ethoxy-phenylcarbamoyl)-[2,2']bipyridinyl-5-carboxylic acid]
